Where a SMILES comes first, the peptide text is derived from it. [ ]: non-standard residue; d: D form. The star is where a group is joined. His(τ-Bzl) = N[C@@H](Cc1cn(Cc2ccccc2)cn1)C(=O)O; X2 = CC(C)C[C@@H](CN[C@@H](CC(C)C)C(N)=O)N*; dTpi = O=C(O)[C@H]1Cc2c([nH]c3ccccc23)CN1
Target: T1, GRP receptors on Swiss 3T3 cells (Mus musculus, UniProt P21729)
T1 construct: conducted in 24-well tissue culture plates (GIBCO) using Swiss 3T3 cells; endogenous in cells; host or cells: Murine Swiss 3T3 fibroblasts (intact confluent, quiescent cells)
T1 sequence (P21729 whole entry): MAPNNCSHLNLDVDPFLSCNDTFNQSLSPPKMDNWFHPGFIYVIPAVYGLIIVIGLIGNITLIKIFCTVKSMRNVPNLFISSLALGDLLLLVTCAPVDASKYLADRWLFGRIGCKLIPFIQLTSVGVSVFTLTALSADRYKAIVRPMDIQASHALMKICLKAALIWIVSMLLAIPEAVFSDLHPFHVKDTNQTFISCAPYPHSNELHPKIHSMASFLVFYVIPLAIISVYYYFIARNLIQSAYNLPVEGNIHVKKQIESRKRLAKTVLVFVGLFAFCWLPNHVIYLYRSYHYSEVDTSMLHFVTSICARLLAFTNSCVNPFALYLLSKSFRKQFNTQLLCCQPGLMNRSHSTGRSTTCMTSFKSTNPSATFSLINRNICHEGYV
Assay: Receptor binding assay: displacement of 125I-GRP(14-27) on Swiss 3T3 cells
Design: species or system Murine
Conditions: for Ka: association constant, N.D.=NO DISPLACEMENT; for Ka / Kd: 0.2 nM 125I-GRP(14-27), Swiss 3T3 cells, 37° C. 30 min; for IC50: calculated by Cheng and Prussoff equation IC50=Kc(1+L/Kh), 0.2 nM radioligand
Experimental: (A) Receptor Binding Assay
Binding of ^125 I-GRP(14-27) and displacement by bombesin antagonists were conducted in 24-well tissue culture plates (GIBCO) using Swiss 3T3 cells. Murine Swiss 3T3 fibroblasts were maintained by weekly passage in DMEM containing 10% FCBS and antimycotics. Cultures were incubated in 5% CO2 in air at 37° C. The wells were seeded with 10^5 cells/well (viability >95%), grown to confluence and quiescency. The binding procedure was conducted 7 days after seeding. The cells were washed 2 times with 0.5 ml of binding buffer (Dulbecco's modified Eagle's medium containing […] (pH 7.4), 0.2% BSA and 100 mcg/ml bacitracin). The cells were then incubated with 0.2 nM ^125 I-GRP (14-27) in the presence or absence of different concentrations of antagonists (6×10^-11 -6×10^-6 M, total volume 0.4 ml).
According to Zachary and Rozengurt (1985) and Layton et al., (1988), binding of ^125 I-GRP at 37° C. reached a maximum value at 30 min and decreased afterwards; so, the cells were incubated at 37° C. for 30 min. After that, the cells were washed 2 times with ice-cold (4° C.) binding buffer and 2 times with the ice-cold phosphate-buffered saline (PBS,mM): NaCl 138, KCl 2.8, Na2 HPO4 8, KH2 PO4 1.45, CaCl2 0.91, MgCl2 0.49. Washed cultures were extracted in 0.5 ml of 0.5M NaOH and transferred to tubes for counting. The wells were washed once with 0.5 ml distilled water (sterile), and the washing were added to the appropriate tubes. Then the radio-activity of the samples was counted in an automatic gamma counter (Micromedic System, Inc., Huntsville, Ala.).
The Ligand - PC computerized curve fitting program of Munson and Rodbard was used to determine the types of receptor binding, dissociation constant (Kd), association constant (Ka), the maximal binding capacity of receptors (Bmax) and half-maximal inhibition (IC50).
IC50 values represent concentrations of antagonists causing half-maximal inhibition of 0.2 nM GRP(14-27) stimulated growth. Dissociation constant and maximal binding capacity of ^125 I-GRP (14-27) in our experiments were 1.32 nm and 0.769 pm/mg protein, respectively, which were similar to those reported for ^125 I-GRP and ^125 I-Tyr^4 -bombesin. Binding characteristics of GRP receptors on 3T3 cells in these experiments agree well with values obtained for bombesin binding to pancreatic acinar (Jensen et al., 1978) and pituitary cells (Westendorf and Schonbrunn, 1983).
IC50 is the concentration of unlabelled ligand that displaced half the specific radioligand binding. It is calculated according to the equation of Cheng and Prussoff (1973): IC50 =Kc (1+L/Kh), where Kc and Kh are the dissociation constants of unlabelled (cold) and labelled (hot) ligand respectively, and L is the concentration of radioligand used.

SMILES	maximal binding capacity of 125I-GRP(14-27) (radioligand on Swiss 3T3 cells)	Ka	Kd	IC50
CSCC[C@H](NC(=O)[C@H](CC(C)C)NC(=O)[C@H](Cc1c[nH]cn1)NC(=O)CNC(=O)[C@@H](NC(=O)[C@H](C)NC(=O)[C@H](Cc1c[nH]c2ccccc12)NC(=O)[C@H](Cc1c[nH]cn1)NC(=O)[C@H](CC(N)=O)NC(=O)CNC(=O)[C@H](CCCNC(=N)N)NC(=O)[C@@H]1CCCN1C(=O)[C@H](Cc1ccc(O)cc1)NC(=O)[C@@H](N)CCSC)C(C)C)C(N)=O [125I-GRP (14-27), reference compound]	0.769 pm/mg protein			
CSCC[C@H](NC(=O)[C@H](CC(C)C)NC(=O)[C@H](Cc1c[nH]cn1)NC(=O)CNC(=O)[C@@H](NC(=O)[C@H](C)NC(=O)[C@H](Cc1c[nH]c2ccccc12)NC(=O)[C@H](Cc1c[nH]cn1)NC(=O)[C@H](CC(N)=O)NC(=O)CNC(=O)[C@H](CCCNC(=N)N)NC(=O)[C@@H]1CCCN1C(=O)[C@H](Cc1ccc(O)cc1)NC(=O)[C@@H](N)CCSC)C(C)C)C(N)=O [GRP(14-27), reference compound]		0.758 ± 0.23 nM⁻¹		
CC(C)C[C@@H](CN[C@@H](CC(C)C)C(N)=O)NC(=O)[C@H](Cc1c[nH]cn1)NC(=O)CNC(=O)[C@@H](NC(=O)[C@H](C)NC(=O)[C@H](Cc1c[nH]c2ccccc12)NC(=O)[C@H](CCC(N)=O)NC(=O)[C@H](N)Cc1c[nH]c2ccccc12)C(C)C [Peptide 2, D--Trp--Gln--Trp--Ala--Val--Gly--His--Leu-psi-Leu--NH2]			10.6 nM	12.2 nM
CC(C)C[C@@H](CN[C@@H](CC(C)C)C(N)=O)NC(=O)[C@H](Cc1c[nH]cn1)NC(=O)CNC(=O)[C@@H](NC(=O)[C@H](C)NC(=O)[C@H](Cc1c[nH]c2ccccc12)NC(=O)[C@H](CCC(N)=O)NC(=O)[C@H]1Cc2c([nH]c3ccccc23)CN1)C(C)C [Peptide 5, D--Tpi--Gln--Trp--Ala--Val--Gly--His--Leu-psi-Leu--NH2]			8 nM	9.2 nM
CC(C)C[C@@H](CN[C@@H](CC(C)C)C(N)=O)NC(=O)[C@H](Cc1c[nH]cn1)NC(=O)CNC(=O)[C@@H](NC(=O)[C@H](C)NC(=O)[C@H](Cc1c[nH]c2ccccc12)NC(=O)[C@H](Cc1cn(Cc2ccccc2)cn1)NC(=O)[C@H]1Cc2c([nH]c3ccccc23)CN1)C(C)C [Peptide 8, D--Tpi--His(Bz)--Trp--Ala--Val--Gly--His--Leu-psi-Leu--NH2] (H-[dTpi][His(τ-Bzl)]WAVGH-X2)		0.014 nM⁻¹		
CC(C)C[C@@H](CN[C@@H](Cc1ccccc1)C(N)=O)NC(=O)[C@H](Cc1c[nH]cn1)NC(=O)CNC(=O)[C@@H](NC(=O)[C@H](C)NC(=O)[C@H](Cc1c[nH]c2ccccc12)NC(=O)[C@H](CCC(N)=O)NC(=O)[C@H](N)Cc1c[nH]c2ccccc12)C(C)C [Peptide 10, D--Trp--Gln--Trp--Ala--Val--Gly--His--Leu-psi-Phe--NH2]			1 nM	1.15 nM
CNC(=O)CC[C@H](NC(=O)[C@H](N)Cc1c[nH]c2ccccc12)C(=O)N[C@@H](Cc1c[nH]c2ccccc12)C(=O)N[C@@H](C)C(=O)N[C@H](C(=O)NCC(=O)N[C@@H](Cc1c[nH]cn1)C(=O)N[C@H](CN[C@@H](Cc1ccccc1)C(N)=O)CC(C)C)C(C)C [Peptide 11, D--Trp--Glu(MeNH)--Trp--Ala--Val--Gly--His--Leu-psi-Phe--NH2]			5 nM	5.75 nM
CC(C)C[C@@H](CN[C@@H](Cc1ccccc1)C(N)=O)NC(=O)[C@H](Cc1c[nH]cn1)NC(=O)CNC(=O)[C@@H](NC(=O)[C@H](C)NC(=O)[C@H](Cc1c[nH]c2ccccc12)NC(=O)[C@H](CCC(N)=O)NC(=O)[C@H]1Cc2c([nH]c3ccccc23)CN1)C(C)C [Peptide 12, D--Tpi--Gln--Trp--Ala--Val--Gly--His--Leu-psi-Phe--NH2] (HELM PEPTIDE1{[O=C([C@H]1Cc2c([nH]c3ccccc23)CN1)[*:2]].Q.W.A.V.G.H.[CC(C)C[C@@H](CN[C@@H](Cc1ccccc1)C(N)=O)N[*:1]]}$$$$V2.0)		0.014 nM⁻¹		

— US5244883A, “Nonapeptide bombesin antagonists” (The Administrators of the Tulane Educational Fund, priority 1990, dated 1993)
